The text below walks through data of patent US8680290B2, “Isoxazoline derivatives and their use as herbicides” (Syngenta Limited, priority 2004, dated 2014).

In data set [1] the test system is Monocotyledonous and dicotyledonous test plants. The data set can be described thus: Example B1 herbicidal action, application pre-emergence (Table B1b). The class given is in vivo. The following applies: 250 g/ha, evaluated after 4 weeks. Put shortly:
(§1)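 Visual damage rating, 10 = plant dead and 0 = unharmed, taken at 3 weeks for post-emergence and 4 weeks for pre-emergence treatment. Application by spray of formulated aqueous solution either immediately after sowing or at 8–9 days' growth, with mono- and dicot plants kept in a greenhouse.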

The test system is the same in data set [2]. The experiment in a line: Example B2 herbicidal action, application pre-emergence, 96-cell seed trays (Table B2b). Type of data set: in vivo. The following applies: 1000 g/ha. On the procedure: Monocotyledonous and dicotyledonous test plants were sown in sterilised standard soil in seed trays each having 96 cells. After one day (pre-emergence) or after 8 to 9 days cultivation (post-emergence) under controlled conditions in a climatic chamber (cultivation at 17/23° C.; 13 hours light; 50-60% humidity; after application at 19/24° C.), the plants were treated with an aqueous spray solution of 1000 mg/l of the active ingredient used (rate of application: […]; incl. 10% DMSO as solvent). The plants were grown on in the climatic chamber until the test was evaluated (10 total damage to plant, 0=no damage to plant) after 9 or 13 days.

Data set [3] shares this test system. The data set can be described thus: Example B1 herbicidal action, application post-emergence (Table B1a). The class given is in vivo. The following applies: 250 g/ha, evaluated after 3 weeks, scale 0-10. Put shortly: as §1

As for `CC1(C)CC(S(=O)(=O)C(Cc2ccc(F)cc2)c2c(F)cccc2F)=NO1` (stereo not drawn) [Compound No. 1.05, 3-[1-(2,6-difluoro-phenyl)-2-(4-fluoro-phenyl)-ethanesulfonyl]-5,5-dimethyl-4,5-dihydroisoxazole], the melting point (as a rule, the temperature, or range, at which the solid turns liquid) is 95 °C.

Consider `C#CCC(c1c(F)cccc1F)S(=O)(=O)C1=NOC(C)(C)C1` (stereo not drawn) [Compound No. 1.02], for which, in data set [1], the “herbicidal action (damage rating 0-10), Panicum” value (shortened to “herbicidal action … Panicum”) is 6; the “herbicidal action (damage rating 0-10), Setaria” value (“herbicidal action … Setaria” for short) is given as 3; the “herbicidal action (damage rating 0-10), Sida” value (“herbicidal action … Sida” below) is 0. In data set [2], the “herbicidal action (damage rating 0-10), Agrostis” value (shortened to “herbicidal action … Agrostis”) worked out at 8; the “herbicidal action (damage rating 0-10), Digitaria” value (from here on “herbicidal action … Digitaria”) is recorded as 9; the “herbicidal action (damage rating 0-10), Poa” value (shortened to “herbicidal action … Poa”) is listed as 5; the “herbicidal action … Setaria” value is on record as 9. Further, in data set [3], the “herbicidal damage rating, Abutilon” value amounted to 0; the “herbicidal damage rating, Amaranthus” value is 9; the “herbicidal damage rating, Digitaria” value is 6; the “herbicidal damage rating, Panicum” value amounted to 10. In addition, in data set [3], the “herbicidal damage rating, Setaria” value is 7 and the “herbicidal damage rating, Sida” value stood at 5.

In the case of `CC1(C)CC(S(=O)(=O)C(Cl)(CC=C(F)F)c2c(F)cccc2F)=NO1` (stereo not drawn) [Compound No. 1.17, 3-[1-chloro-1-(2,6-difluoro-phenyl)-4,4-difluoro-but-3-ene-1-sulfonyl]-5,5-dimethyl-4,5-dihydroisoxazole], the melting point turned out to be 113 °C.

Turning to `COC(=O)C(Cl)(c1c(F)cccc1F)S(=O)(=O)C1=NOC(C)(C)C1` (stereo not drawn) [Compound No. 1.14, chloro-(2,6-difluorophenyl)-(5,5-dimethyl-4,5-dihydroisoxazole-3-sulfonyl)-acetic acid methyl ester], in data set [1], the “herbicidal action (damage rating 0-10), Amaranthus” value (“herbicidal action … Amaranthus” for short) was 8; the “herbicidal action … Digitaria” value was determined as 9; the “herbicidal action … Panicum” value was 9; the “herbicidal action … Setaria” value turned out to be 9. The “herbicidal action … Sida” value in data set [1] is recorded as 6. Further, in data set [2], the “herbicidal action … Agrostis” value was 10; the “herbicidal action … Digitaria” value is recorded as 9; the “herbicidal action … Poa” value is 10; the “herbicidal action … Setaria” value stood at 10. In data set [3], the “herbicidal damage rating, Abutilon” value is 4; the “herbicidal damage rating, Digitaria” value came to 3; the “herbicidal damage rating, Panicum” value amounted to 0; the “herbicidal damage rating, Setaria” value was determined as 3. In addition, the “herbicidal damage rating, Sida” value in data set [3] worked out at 3.

`CC1(C)CC(S(=O)(=O)C(F)(F)c2c(F)cccc2F)=NO1` [1.20]: in data set [1], the “herbicidal action … Amaranthus” value was 10; the “herbicidal action … Digitaria” value was 10; the “herbicidal action … Panicum” value was found to be 10; the “herbicidal action … Setaria” value turned out to be 10. The “herbicidal action … Sida” value in data set [1] is reported as 9. Also, in data set [2], the “herbicidal action … Agrostis” value is given as 10; the “herbicidal action … Digitaria” value worked out at 10; the “herbicidal action … Poa” value amounted to 10; the “herbicidal action … Setaria” value was 10. Also, in data set [3], the “herbicidal damage rating, Abutilon” value was determined as 7; the “herbicidal damage rating, Amaranthus” value was determined as 3; the “herbicidal damage rating, Digitaria” value was determined as 6; the “herbicidal damage rating, Panicum” value was 0. Also, in data set [3], the “herbicidal damage rating, Setaria” value came out at 6 and the “herbicidal damage rating, Sida” value is given as 5.

In the case of `CC1(C)CC(S(=O)(=O)C(C)(F)c2ccccc2)=NO1` (stereo not drawn) [Compound No. 1.138, 3-(1-fluoro-1-phenyl-ethanesulfonyl)-5,5-dimethyl-4,5-dihydroisoxazole], the melting point lay in the range of 91 to 93 °C.

The compound `Cc1noc(C2CC2)c1C(Cl)(Cl)S(=O)(=O)C1=NOC(C)(C)C1` [Compound No. 3.06, 5-cyclopropyl-4-[dichloro-(5,5-dimethyl-4,5-dihydroisoxazole-3-sulfonyl)methyl]-3-methyl-isoxazole] displayed a melting point of 72 °C.

On to `Cc1onc(C2CC2)c1C(Cl)S(=O)(=O)C1=NOC(C)(C)C1` (stereo not drawn) [Compound No. 3.07, 4-[chloro-(5,5-dimethyl-4,5-dihydroisoxazole-3-sulfonyl)methyl]-3-cyclopropyl-5-methyl-isoxazole], for which the melting point was 159 °C. In data set [1], the “herbicidal action … Amaranthus” value is on record as 4; the “herbicidal action … Digitaria” value came out at 9; the “herbicidal action … Setaria” value was found to be 8; the “herbicidal action … Sida” value stood at 2.

`Cn1nc(C(F)(F)F)c(C(F)S(=O)(=O)C2=NOC(C)(C)C2)c1OC1COC1` (stereo not drawn) [Compound No. 2.27, 3-{fluoro-[1-methyl-5-(oxetan-3-yloxy)-3-trifluoromethyl-1H-pyrazol-4-yl]-methanesulfonyl}-5,5-dimethyl-4,5-dihydroisoxazole]: the melting point was 105 to 107 °C.

`CC1(C)CC(S(=O)(=O)C(C(=O)NC2CC2)c2c(F)cccc2F)=NO1` (stereo not drawn) [Compound No. 1.35, N-cyclopropyl-2-(2,6-difluoro-phenyl)-2-(5,5-dimethyl-4,5-dihydroisoxazole-3-sulfonyl)-acetamide] had a melting point of 150 °C.

`COc1cc(C(Cl)(Cl)S(=O)(=O)C2=NOC(C)(C)C2)on1` [Compound No. 5.02, 5-[dichloro-(5,5-dimethyl-4,5-dihydroisoxazole-3-sulfonyl)-methyl]-3-methoxy-isoxazole] showed a melting point of 118 °C.

For the compound `Cn1cc(C(F)(F)F)c(C(F)(F)S(=O)(=O)C2=NOC(C)(C)C2)n1` [Compound No. 4.05, 3-[difluoro-(1-methyl-4-trifluoromethyl-1H-pyrazol-3-yl)-methanesulfonyl]-5,5-dimethyl-4,5-dihydro-isoxazole], the melting point is 101 to 103 °C.

With `CC1(C)CC([S+]([O-])C(Cl)c2c(F)cccc2F)=NO1` (mixture of isomers) [1.24], in data set [1], the “herbicidal action … Amaranthus” value is listed as 8; the “herbicidal action … Digitaria” value came out at 8; the “herbicidal action … Panicum” value turned out to be 10; the “herbicidal action … Setaria” value was 7. In addition, the “herbicidal action … Sida” value in data set [1] stood at 4. Besides, in data set [2], the “herbicidal action … Agrostis” value stood at 10; the “herbicidal action … Digitaria” value came out at 10; the “herbicidal action … Poa” value is given as 10; the “herbicidal action … Setaria” value amounted to 9. Also, in data set [3], the “herbicidal damage rating, Digitaria” value is given as 6; the “herbicidal damage rating, Panicum” value was found to be 6; the “herbicidal damage rating, Setaria” value amounted to 6.

Turning to `CC1(C)CC(S(=O)(=O)C(C)(Br)c2c(F)cccc2F)=NO1` (stereo not drawn) [1.37], in data set [1], the “herbicidal action … Amaranthus” value worked out at 0; the “herbicidal action … Digitaria” value is reported as 9; the “herbicidal action … Panicum” value is listed as 9; the “herbicidal action … Setaria” value was 9. The “herbicidal action … Sida” value in data set [1] amounted to 5. In data set [2], the “herbicidal action … Agrostis” value came to 10; the “herbicidal action … Digitaria” value was 9; the “herbicidal action … Poa” value is reported as 10; the “herbicidal action … Setaria” value was 9.

With `CC1(C)CC(S(=O)(=O)C(C)(Cl)c2c(F)cccc2F)=NO1` (stereo not drawn) [1.15], in data set [1], the “herbicidal action … Amaranthus” value turned out to be 10; the “herbicidal action … Digitaria” value is listed as 9; the “herbicidal action … Panicum” value is 10; the “herbicidal action … Setaria” value is 8. For the same compound, in data set [1], the “herbicidal action … Sida” value is recorded as 0. Also, in data set [2], the “herbicidal action … Agrostis” value was 2; the “herbicidal action … Digitaria” value is 9; the “herbicidal action … Poa” value came to 10; the “herbicidal action … Setaria” value is 9.

Turning to `Cn1cc(C(F)(F)F)c(C(F)S(=O)(=O)C2=NOC(C)(C)C2)n1` (stereo not drawn) [Compound No. 4.04, 3-[fluoro-(1-methyl-4-trifluoromethyl-1H-pyrazol-3-yl)-methanesulfonyl]-5,5-dimethyl-4,5-dihydroisoxazole], the melting point lay within 117 to 118 °C.

`Cc1cccc(C(CC=C(F)F)S(=O)(=O)C2=NOC(C)(C)C2)c1` (stereo not drawn) [1.29]: in data set [1], the “herbicidal action … Amaranthus” value was determined as 2; the “herbicidal action … Digitaria” value stood at 3; the “herbicidal action … Panicum” value is 7; the “herbicidal action … Setaria” value is reported as 7. In data set [1], the “herbicidal action … Sida” value is reported as 0. Further, in data set [2], the “herbicidal action … Agrostis” value turned out to be 10; the “herbicidal action … Digitaria” value turned out to be 9; the “herbicidal action … Poa” value is listed as 8; the “herbicidal action … Setaria” value was determined as 4.

`Cc1c(Br)noc1C(F)(F)S(=O)(=O)C1=NOC(C)(C)C1` [Compound No. 5.06, 3-bromo-5-[(5,5-dimethyl-4,5-dihydroisoxazole-3-sulfonyl)-difluoro-methyl]-4-methyl-isoxazole]: the melting point was in the range of 70 to 75 °C.
